Measurements published in patent US9783586B2, “Inhibitors of the linear ubiquitin chain assembly complex (LUBAC) and related methods” (The United States of America, as represented by the …, priority 2013, dated 2017).
Positions of bridges follow the written chain, without caps; N, C: chain ends. Non-standard residues stand in square brackets, D forms with d. Residues, ends and D or L forms follow the SMILES beside them. S5 = C=CCCC[C@](C)(N)C(=O)O; βAla = NCCC(=O)O

Biological target: T1, RBCK1/RNF31 interaction (Homo sapiens, UniProt Q9BYM8)
T1 construct: expressed in transfected cells; host or cells: HEK-293
T1 sequence (Q9BYM8 1-510): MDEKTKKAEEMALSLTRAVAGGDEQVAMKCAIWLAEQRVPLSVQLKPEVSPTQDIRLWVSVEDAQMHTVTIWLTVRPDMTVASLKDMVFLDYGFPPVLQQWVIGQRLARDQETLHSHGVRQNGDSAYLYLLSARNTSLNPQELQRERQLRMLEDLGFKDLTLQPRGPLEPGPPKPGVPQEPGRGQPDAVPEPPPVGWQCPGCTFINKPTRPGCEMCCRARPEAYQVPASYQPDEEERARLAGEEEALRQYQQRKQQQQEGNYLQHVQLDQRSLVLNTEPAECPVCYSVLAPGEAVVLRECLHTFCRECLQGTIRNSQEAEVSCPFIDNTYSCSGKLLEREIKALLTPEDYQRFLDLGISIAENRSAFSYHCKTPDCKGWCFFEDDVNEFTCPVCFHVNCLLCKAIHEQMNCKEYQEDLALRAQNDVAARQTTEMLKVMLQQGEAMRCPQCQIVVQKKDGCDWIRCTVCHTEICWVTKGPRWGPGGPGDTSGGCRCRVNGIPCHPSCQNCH
Test: RBCK1/RNF31 co-immunoprecipitation (LUBAC complex formation) in co-transfected HEK-293 cells
Type: cell-based
Details: Example 9, tested as described in Example 7 (present tense)

SMILES	Interference with LUBAC function
CC(=O)NCCC(=O)N[C@@H](CO)C(=O)N[C@@H](CCCNC(=N)N)C(=O)N[C@@]1(C)CCCC=CCCC[C@@](C)(C(=O)N[C@@H](CCC(N)=O)C(=O)N[C@@H](CCCNC(=N)N)C(=O)N[C@@H](CCC(N)=O)C(=O)N[C@@H](CCCNC(=N)N)C(=O)N[C@@H](CC(C)C)C(=O)N[C@@H](CCC(=O)O)C(=O)N2CCC[C@H]2C(=O)N[C@@H](Cc2ccccc2)C(=O)N[C@@H](CS)C(=O)N[C@@H](CCC(N)=O)C(=O)N[C@@H](CCCNC(=N)N)C(=O)N[C@@]2(C)CCCC=CCCC[C@@](C)(C(N)=O)NC(=O)[C@H](CO)NC(=O)[C@H](CC(=O)O)NC(=O)[C@H](Cc3c[nH]c4ccccc34)NC2=O)NC(=O)[C@H](CCC(=O)O)NC(=O)[C@H]([C@@H](C)O)NC(=O)[C@H](CC(C)C)NC1=O [RNF31-NC R2C, Ac-βAla Ser Arg Xaa Leu Thr Glu Xaa Gln Arg Gln Arg Leu Glu Pro Phe Cys Gln Arg Xaa Trp Asp Ser Xaa-NH2] (Ac-[βAla]SR[S5]LTE[S5]QRQRLEPFCQR[S5]WDS[S5]-NH2; staple 4-8, 20-24)	interfere with LUBAC function
CC(=O)NCCC(=O)N[C@@H](CO)C(=O)N[C@@H](CCCNC(=N)N)C(=O)N[C@@]1(C)CCCC=CCCC[C@@](C)(C(=O)N[C@@H](CCC(N)=O)C(=O)N[C@@H](CCCNC(=N)N)C(=O)N[C@@H](CCC(N)=O)C(=O)N[C@@H](CCCNC(=N)N)C(=O)N[C@@H](CC(C)C)C(=O)N[C@@H](CCC(=O)O)C(=O)NCC(=O)N[C@@H](Cc2ccccc2)C(=O)N[C@@H](CCCNC(=N)N)C(=O)N[C@@H](CCC(N)=O)C(=O)N[C@@H](CCCNC(=N)N)C(=O)N[C@@]2(C)CCCC=CCCC[C@@](C)(C(N)=O)NC(=O)[C@H](CO)NC(=O)[C@H](CC(=O)O)NC(=O)[C@H](Cc3c[nH]c4ccccc34)NC2=O)NC(=O)[C@H](CCC(=O)O)NC(=O)[C@H]([C@@H](C)O)NC(=O)[C@H](CC(C)C)NC1=O [RNF31-NC P2G, Ac-βAla Ser Arg Xaa Leu Thr Glu Xaa Gln Arg Gln Arg Leu Glu Gly Phe Arg Gln Arg Xaa Trp Asp Ser Xaa-NH2] (Ac-[βAla]SR[S5]LTE[S5]QRQRLEGFRQR[S5]WDS[S5]-NH2; staple 4-8, 20-24)	interfere with LUBAC function
CC(=O)NCCC(=O)N[C@@H](CO)C(=O)N[C@@H](CCCNC(=N)N)C(=O)N[C@@]1(C)CCCC=CCCC[C@@](C)(C(=O)N[C@@H](CCC(N)=O)C(=O)N[C@@H](CCCNC(=N)N)C(=O)N[C@@H](CCC(N)=O)C(=O)N[C@@H](CCCNC(=N)N)C(=O)N[C@@H](CC(C)C)C(=O)N[C@@H](CCC(=O)O)C(=O)N2CCC[C@H]2C(=O)N[C@@H](Cc2ccccc2)C(=O)N[C@@H](CS)C(=O)N[C@@H](CC(C)C)C(=O)N[C@@H](CCCNC(=N)N)C(=O)N[C@@]2(C)CCCC=CCCC[C@@](C)(C(N)=O)NC(=O)[C@H](CO)NC(=O)[C@H](CC(=O)O)NC(=O)[C@H](Cc3c[nH]c4ccccc34)NC2=O)NC(=O)[C@H](CCC(=O)O)NC(=O)[C@H]([C@@H](C)O)NC(=O)[C@H](CC(C)C)NC1=O [RNF31-NC R2CL, Ac-βAla Ser Arg Xaa Leu Thr Glu Xaa Gln Arg Gln Arg Leu Glu Pro Phe Cys Leu Arg Xaa Trp Asp Ser Xaa-NH2] (Ac-[βAla]SR[S5]LTE[S5]QRQRLEPFCLR[S5]WDS[S5]-NH2; staple 4-8, 20-24)	interfere with LUBAC function
